Experimental data taken from paper PMC4549706, “Rational Design of Highly Potent and Slow-Binding Cytochrome bc1 Inhibitor as Fungicide by Computational Substitution Optimization” (Scientific Reports, 2015).

System: S. fuliginea
Experiment: Field trial, summer squash naturally infected, powdery mildew
Assay type: in vivo, Sphaerotheca fuliginea
Protocol: To further study the potential of compound 18 against powdery mildew and downy mildew, field experiments were conducted during the growing season of summer squash and cucumber. The summer squash plants at a fruiting stage naturally infected by S. fuliginea were used. […] Almost no lesions were observed on the leaves of summer squash. […] Lesions on the leaves of control plants, however, expanded quickly, and intense fungal hyphae could be observed. The curative effect is approximately 64.85% for the AZ-treated (93.75 g.ai/ha) summer squash. In addition, field trials for the treatment of downy mildew of cucumber were also performed. Cucumber plants naturally infected by P. cubensis were used for the study. Fungi on the leaves of control plants expanded quickly and lesions could be observed.
In the field trials, summer squash plants which is naturally infected by S. fuliginea and cucumber plants which is naturally infected by P. cubensis were used.
The disease index and control effect of compound 18 were calculated via the following […]
Disease index (%) = ∑(Ni × i)/(N × 9) × 100 […]
Each treatment took up in four plots and was distributed randomly in each […]eld. The relative control effects were assessed after the 7th day of foliar application 18. […]

With `COC=C(C(=O)OC)c1ccccc1CSc1nc2cc(OC)ccc2s1` [Compound 18] the “curative effect, powdery mildew (S. fuliginea)” value (37.5 g.ai/ha, 7th day) was “approximately 70.92%” and the “curative effect, powdery mildew (S. fuliginea)” value (75 g.ai/ha, 7th day after foliar application) was 74.60%.
